According to the NIST ThermoML archive (doi:10.1016/j.fluid.2010.01.023):
Several values for one entry are separate records, joined by “and”; a condition that tells them apart may be missing. Equal entries are not always repeated.

Test: xn = mol fraction of the nth substance listed
Conditions: Fluid (supercritical or subcritical phases), quasistatic thermogram and barogram, x2 = 0.7393

N [ammonia] + O
Conditions | thermal pressure coefficient
330.88 K, Mass density=540.25 kg/m3 | 7 kPa/K
349.52 K, Mass density=540.25 kg/m3 | 12 kPa/K
366.71 K, Mass density=540.25 kg/m3 | 17 kPa/K
397.73 K, Mass density=540.25 kg/m3 | 32 kPa/K
402.59 K, Mass density=671.23 kg/m3 | 30 kPa/K
407.37 K, Mass density=649.65 kg/m3 | 37 kPa/K
407.57 K, Mass density=649.65 kg/m3 | 37 kPa/K
407.79 K, Mass density=649.65 kg/m3 | 40 kPa/K
421.43 K, Mass density=540.25 kg/m3 | 43 kPa/K
446.89 K, Mass density=540.25 kg/m3 | 58 kPa/K
473.33 K, Mass density=540.25 kg/m3 | 77 kPa/K
478.28 K, Mass density=671.23 kg/m3 | 86 kPa/K
485.04 K, Mass density=671.23 kg/m3 | 86 kPa/K
492.71 K, Mass density=671.23 kg/m3 | 87 kPa/K
494.07 K, Mass density=540.25 kg/m3 | 97 kPa/K
498.62 K, Mass density=671.23 kg/m3 | 97 kPa/K
507.04 K, Mass density=671.23 kg/m3 | 118 kPa/K
508.36 K, Mass density=671.23 kg/m3 | 941 kPa/K
509.3 K, Mass density=649.65 kg/m3 | 106 kPa/K
509.3 K, Mass density=671.23 kg/m3 | 935 kPa/K
513.52 K, Mass density=671.23 kg/m3 | 976 kPa/K
514.53 K, Mass density=649.65 kg/m3 | 119 kPa/K
516.77 K, Mass density=540.25 kg/m3 | 116 kPa/K
517.23 K, Mass density=540.25 kg/m3 | 119 kPa/K
519.21 K, Mass density=649.65 kg/m3 | 137 kPa/K
519.86 K, Mass density=649.65 kg/m3 | 896 kPa/K
520.05 K, Mass density=649.65 kg/m3 | 897 kPa/K
520.42 K, Mass density=649.65 kg/m3 | 899 kPa/K
521.54 K, Mass density=649.65 kg/m3 | 899 kPa/K
527.01 K, Mass density=649.65 kg/m3 | 915 kPa/K
527.03 K, Mass density=456.58 kg/m3 | 125 kPa/K
530.51 K, Mass density=552.58 kg/m3 | 130 kPa/K
530.67 K, Mass density=594.32 kg/m3 | 131 kPa/K
530.98 K, Mass density=476.25 kg/m3 | 129 kPa/K
534.1 K, Mass density=594.32 kg/m3 | 139 kPa/K
536.84 K, Mass density=540.25 kg/m3 | 135 kPa/K
537.29 K, Mass density=540.25 kg/m3 | 135 kPa/K
539.15 K, Mass density=594.32 kg/m3 | 145 kPa/K
539.88 K, Mass density=552.58 kg/m3 | 138 kPa/K
540.06 K, Mass density=476.25 kg/m3 | 137 kPa/K
540.79 K, Mass density=476.25 kg/m3 | 137 kPa/K
541.46 K, Mass density=594.32 kg/m3 | 152 kPa/K
541.53 K, Mass density=456.58 kg/m3 | 139 kPa/K
542.16 K, Mass density=594.32 kg/m3 | 153 kPa/K
544.61 K, Mass density=594.32 kg/m3 | 158 kPa/K
545.26 K, Mass density=594.32 kg/m3 | 161 kPa/K
546.16 K, Mass density=594.32 kg/m3 | 744 kPa/K
546.26 K, Mass density=594.32 kg/m3 | 736 kPa/K
548.44 K, Mass density=476.25 kg/m3 | 146 kPa/K
549.77 K, Mass density=594.32 kg/m3 | 742 kPa/K
550.79 K, Mass density=552.58 kg/m3 | 152 kPa/K
551.43 K, Mass density=552.58 kg/m3 | 154 kPa/K
552.99 K, Mass density=456.58 kg/m3 | 160 kPa/K
553.25 K, Mass density=456.58 kg/m3 | 154 kPa/K
553.7 K, Mass density=376.89 kg/m3 | 161 kPa/K
554.5 K, Mass density=552.58 kg/m3 | 156 kPa/K
555.04 K, Mass density=552.58 kg/m3 | 159 kPa/K
556.55 K, Mass density=540.25 kg/m3 | 159 kPa/K
556.9 K, Mass density=456.58 kg/m3 | 158 kPa/K
558.82 K, Mass density=552.58 kg/m3 | 167 kPa/K
559.36 K, Mass density=476.25 kg/m3 | 160 kPa/K
560.44 K, Mass density=552.58 kg/m3 | 171 kPa/K
562 K, Mass density=552.58 kg/m3 | 654 kPa/K
562.66 K, Mass density=540.25 kg/m3 | 177 kPa/K
563.63 K, Mass density=342.18 kg/m3 | 162 kPa/K
563.98 K, Mass density=540.25 kg/m3 | 181 kPa/K
564.69 K, Mass density=540.25 kg/m3 | 185 kPa/K
565.22 K, Mass density=540.25 kg/m3 | 186 kPa/K
565.31 K, Mass density=540.25 kg/m3 | 187 kPa/K
566.19 K, Mass density=540.25 kg/m3 | 611 kPa/K
566.98 K, Mass density=540.25 kg/m3 | 606 kPa/K
568.48 K, Mass density=456.58 kg/m3 | 174 kPa/K
570.03 K, Mass density=476.25 kg/m3 | 179 kPa/K
570.81 K, Mass density=476.25 kg/m3 | 182 kPa/K
571.02 K, Mass density=376.89 kg/m3 | 175 kPa/K
571.35 K, Mass density=476.25 kg/m3 | 183 kPa/K
571.99 K, Mass density=456.58 kg/m3 | 187 kPa/K
572.95 K, Mass density=540.25 kg/m3 | 618 kPa/K
574.99 K, Mass density=476.25 kg/m3 | 191 kPa/K
575.79 K, Mass density=476.25 kg/m3 | 191 kPa/K
575.93 K, Mass density=120.03 kg/m3 | 148 kPa/K
576.8 K, Mass density=147.43 kg/m3 | 154 kPa/K
578.55 K, Mass density=456.58 kg/m3 | 197 kPa/K
578.75 K, Mass density=540.25 kg/m3 | 632 kPa/K
579.5 K, Mass density=476.25 kg/m3 | 198 kPa/K
579.85 K, Mass density=456.58 kg/m3 | 204 kPa/K
580.18 K, Mass density=476.25 kg/m3 | 203 kPa/K and 452 kPa/K
580.65 K, Mass density=476.25 kg/m3 | 456 kPa/K
580.9 K, Mass density=329 kg/m3 | 185 kPa/K
581.27 K, Mass density=476.25 kg/m3 | 457 kPa/K
581.59 K, Mass density=342.18 kg/m3 | 192 kPa/K
581.68 K, Mass density=320.33 kg/m3 | 186 kPa/K
581.77 K, Mass density=456.58 kg/m3 | 198 kPa/K
582.01 K, Mass density=120.03 kg/m3 | 155 kPa/K
582.45 K, Mass density=308.35 kg/m3 | 190 kPa/K
582.46 K, Mass density=307.35 kg/m3 | 190 kPa/K
582.55 K, Mass density=312.91 kg/m3 | 189 kPa/K
582.99 K, Mass density=540.25 kg/m3 | 639 kPa/K
583.68 K, Mass density=456.58 kg/m3 | 203 kPa/K
583.77 K, Mass density=160.07 kg/m3 | 168 kPa/K
584.72 K, Mass density=456.58 kg/m3 | 202 kPa/K
584.81 K, Mass density=120.03 kg/m3 | 155 kPa/K
584.88 K, Mass density=476.25 kg/m3 | 473 kPa/K
584.95 K, Mass density=456.58 kg/m3 | 206 kPa/K and 410 kPa/K
585.31 K, Mass density=120.03 kg/m3 | 154 kPa/K and 128 kPa/K
585.68 K, Mass density=147.43 kg/m3 | 166 kPa/K
586.08 K, Mass density=120.03 kg/m3 | 100 kPa/K
586.37 K, Mass density=120.03 kg/m3 | 96 kPa/K
587.24 K, Mass density=456.58 kg/m3 | 416 kPa/K
589.66 K, Mass density=305.44 kg/m3 | 194 kPa/K
590.01 K, Mass density=297.6 kg/m3 | 191 kPa/K
590.09 K, Mass density=303.47 kg/m3 | 191 kPa/K
590.18 K, Mass density=342.18 kg/m3 | 198 kPa/K
590.18 K, Mass density=376.89 kg/m3 | 201 kPa/K
590.7 K, Mass density=309.95 kg/m3 | 203 kPa/K
591.04 K, Mass density=308.35 kg/m3 | 200 kPa/K
591.13 K, Mass density=301.94 kg/m3 | 196 kPa/K
591.13 K, Mass density=329 kg/m3 | 194 kPa/K
591.32 K, Mass density=376.89 kg/m3 | 202 kPa/K
591.47 K, Mass density=160.07 kg/m3 | 177 kPa/K
591.47 K, Mass density=299.79 kg/m3 | 190 kPa/K
591.47 K, Mass density=320.33 kg/m3 | 199 kPa/K
591.73 K, Mass density=376.89 kg/m3 | 202 kPa/K
592.08 K, Mass density=312.91 kg/m3 | 191 kPa/K
592.42 K, Mass density=147.43 kg/m3 | 176 kPa/K
592.68 K, Mass density=307.35 kg/m3 | 194 kPa/K
592.94 K, Mass density=188.05 kg/m3 | 184 kPa/K
593.2 K, Mass density=147.43 kg/m3 | 175 kPa/K
593.54 K, Mass density=311.19 kg/m3 | 197 kPa/K
593.89 K, Mass density=147.43 kg/m3 | 148 kPa/K
594.06 K, Mass density=376.89 kg/m3 | 206 kPa/K
594.14 K, Mass density=147.43 kg/m3 | 168 kPa/K and 141 kPa/K
